According to patent US10632195B2, “Pharmaceutical device for electric-field assisted administration of Tapentadol and method of administering Tapentadol with same” (Gruenenthal GmbH, priority 2012, dated 2020):
Where “and” joins values, the source holds several entries; their conditions need not be identical. Identical values can stand only once. Counter-ions that a name gives are not always drawn.

Test: iontophoretic transdermal delivery of Tapentadol hydrochloride, 8 hours of iontophoresis (example 1a), side-bi-side diffusion cells, constant current 0.25 mA (0.4 mA/cm2), donor 100 mM in water
Type: in vitro ADME, pig
Settings: for drug flux across the skin, Mean ± SD / drug flux across the skin, as tapentadol base, Mean ± SD / cumulative, iontophoretic delivery across the skin, Mean ± SD / cumulative, iontophoretic delivery across the skin, as tapentadol base, Mean ± SD: n=6; for drug flux across the skin, Mean ± SD / drug flux across the skin, as tapentadol base, Mean ± SD / cumulative, iontophoretic delivery across the skin, Mean ± SD / cumulative, iontophoretic delivery across the skin, as tapentadol base, Mean ± SD / drug flux across the skin / cumulative, iontophoretic delivery across the skin: patch area 0.64 cm^2; for drug flux across the skin / cumulative, iontophoretic delivery across the skin: single cells 1-6, hydrochloride
Protocol: Determination of the rate of iontophoretic transdermal delivery of Tapentadol hydrochloride for a period of 8 hours of iontophoresis
Tapentadol hydrochloride (batch no. A0012) was employed. The components of the phosphate buffered saline (PBS) and the mobile phase used were from Sigma, UK. The pig skin was obtained from a local farm, washed with water, excess hair was carefully trimmed with scissors, and the skin was dermatomed using a Zimmer dermatome set at a nominal thickness of 750 μm. The skin was then stored at −20° C.
The drug was delivered from the anode, using side-bi-side (horizontal) glass diffusion cells (n=6) supplied by Permegear, USA. The porcine skin membrane was excised from the dorsal surface.
Electrodes were prepared in-house and were made of silver/silver chloride. To pass current for 24 hours in this set-up, it was necessary for the donor compartment to contain 76 mM chloride ions.
The anode was placed in the donor chamber; the donor solution was 3 ml of Tapentadol hydrochloride (100 mM, i.e. 25.78 mg/ml of Tapentadol hydrochloride, 22.13 mg/ml of base) in water. The cathode was placed in the receptor chamber, which contained 3 ml of phosphate-buffered saline, pH 7.4. Both chambers were stirred by magnets.
Current was applied for a total of 8 or 24 hours, respectively.
The receptor solution was sampled and assayed at 0.5, 1, 2, 3, 4, 5, 6, 7, 8 (example 1a) and optionally 24 hours (example 1b) post-initiation of the current. During the 8 hour experiment (example 1a), at 0.5, 1, 2, and 3 hours, 1 ml of receptor solution was removed and replaced with fresh PBS. As it was clear that the amount of Tapentadol in the receptor solution was sufficient for quantitation by HPLC, at the subsequent sampling times of 4, 5, 6, 7 and 8 hours, the entire receptor solution (3 ml) was removed and replaced with fresh PBS, to ensure sink conditions in the receptor. During the 24 hour experiment (example 1b), the entire receptor solution (3 ml) was removed and replaced with fresh PBS at every sampling point.
The concentrations of Tapentadol hydrochloride in the receptor chamber samples were determined by HPLC. A mobile phase consisting of 300:700:1 methanol:water:phosphoric acid was pumped (1 ml/min) through a Acclaim RP-18 (4×150 mm) reverse-phase column (Dionex, UK) at 35° C. Tapentadol concentrations were quantified via their UV absorbance at 215 nm using a calibration curve diluted in PBS at pH 7.4. Injection volume was 20 μl and the retention time for Tapentadol hydrochloride was 12 minutes and the total run time was 16 minutes.
A Tapentadol-free “blank” diffusion cell (donor was saline only) was also prepared and the receptor solution was analysed after 8 hours to confirm no peaks from any component of the skin co-eluted with the Tapentadol hydrochloride.
Voltages were as expected for 6 cells in series (range was 6 to 28 volts). The pH of the donor solution was measured after termination of 24 hours of iontophoresis, and ranged from 6.47 to 6.99. The pH of drug in the donor prior to commencing the experiment was 5.07 (5.34 for the 8 hour iontophoresis).

## CC[C@@H](c1cccc(O)c1)[C@@H](C)CN(C)C [Tapentadol hydrochloride]
0.5 h, iontophoresis
  drug flux across the skin, Mean ± SD: 8 ± 8 µg/h
  drug flux across the skin, as tapentadol base, Mean ± SD: 7 ± 6 µg/h
0.5 h
  cumulative, iontophoretic delivery across the skin, Mean ± SD: 4 ± 4 µg
  cumulative, iontophoretic delivery across the skin, as tapentadol base, Mean ± SD: 3 ± 3 µg
1 h, iontophoresis
  drug flux across the skin, Mean ± SD: 56 ± 28 µg/h
  drug flux across the skin, as tapentadol base, Mean ± SD: 48 ± 24 µg/h
1 h
  cumulative, iontophoretic delivery across the skin, Mean ± SD: 32 ± 18 µg
  cumulative, iontophoretic delivery across the skin, as tapentadol base, Mean ± SD: 28 ± 15 µg
2 h, iontophoresis
  drug flux across the skin, Mean ± SD: 115 ± 25 µg/h
  drug flux across the skin, as tapentadol base, Mean ± SD: 98 ± 21 µg/h
  drug flux across the skin: 104 µg/h and 162 µg/h and 119 µg/h and 112 µg/h and 90 µg/h and 102 µg/h
2 h
  cumulative, iontophoretic delivery across the skin, Mean ± SD: 147 ± 40 µg
  cumulative, iontophoretic delivery across the skin, as tapentadol base, Mean ± SD: 126 ± 35 µg
  cumulative, iontophoretic delivery across the skin: 216 µg and 173 µg and 128 µg and 127 µg
3 h, iontophoresis
  drug flux across the skin, Mean ± SD: 193 ± 31 µg/h
  drug flux across the skin, as tapentadol base, Mean ± SD: 166 ± 26 µg/h
  drug flux across the skin: 190 µg/h and 201 µg/h and 222 µg/h and 184 µg/h and 139 µg/h and 220 µg/h
3 h
  cumulative, iontophoretic delivery across the skin, Mean ± SD: 340 ± 62 µg
  cumulative, iontophoretic delivery across the skin, as tapentadol base, Mean ± SD: 291 ± 54 µg
  cumulative, iontophoretic delivery across the skin: 321 µg and 417 µg and 396 µg and 312 µg and 244 µg and 347 µg
4 h, iontophoresis
  drug flux across the skin, Mean ± SD: 228 ± 23 µg/h
  drug flux across the skin, as tapentadol base, Mean ± SD: 196 ± 20 µg/h
  drug flux across the skin: 229 µg/h and 257 µg/h and 209 µg/h and 250 µg/h and 196 µg/h
4 h
  cumulative, iontophoretic delivery across the skin, Mean ± SD: 568 ± 68 µg
  cumulative, iontophoretic delivery across the skin, as tapentadol base, Mean ± SD: 487 ± 58 µg
  cumulative, iontophoretic delivery across the skin: 550 µg and 674 µg and 624 µg and 522 µg and 494 µg and 543 µg
5 h, iontophoresis
  drug flux across the skin, Mean ± SD: 246 ± 30 µg/h
  drug flux across the skin, as tapentadol base, Mean ± SD: 211 ± 26 µg/h
  drug flux across the skin: 242 µg/h and 305 µg/h and 234 µg/h and 238 µg/h and 240 µg/h and 217 µg/h
5 h
  cumulative, iontophoretic delivery across the skin, Mean ± SD: 814 ± 92 µg
  cumulative, iontophoretic delivery across the skin, as tapentadol base, Mean ± SD: 699 ± 79 µg
  cumulative, iontophoretic delivery across the skin: 792 µg and 979 µg and 859 µg and 759 µg and 734 µg and 760 µg
6 h, iontophoresis
  drug flux across the skin, Mean ± SD: 244 ± 18 µg/h
  drug flux across the skin, as tapentadol base, Mean ± SD: 209 ± 15 µg/h
  drug flux across the skin: 247 µg/h and 275 µg/h and 245 µg/h and 225 µg/h and 242 µg/h and 228 µg/h
6 h
  cumulative, iontophoretic delivery across the skin, Mean ± SD: 1057 ± 107 µg
  cumulative, iontophoretic delivery across the skin, as tapentadol base, Mean ± SD: 908 ± 92 µg
  cumulative, iontophoretic delivery across the skin: 1040 µg and 1253 µg and 1104 µg and 984 µg and 976 µg and 988 µg
7 h, iontophoresis
  drug flux across the skin, Mean ± SD: 261 ± 26 µg/h
  drug flux across the skin, as tapentadol base, Mean ± SD: 224 ± 22 µg/h
  drug flux across the skin: 264 µg/h and 295 µg/h and 271 µg/h and 260 µg/h and 261 µg/h and 215 µg/h
7 h
  cumulative, iontophoretic delivery across the skin, Mean ± SD: 1319 ± 128 µg
  cumulative, iontophoretic delivery across the skin, as tapentadol base, Mean ± SD: 1132 ± 110 µg
  cumulative, iontophoretic delivery across the skin: 1304 µg and 1548 µg and 1375 µg and 1244 µg and 1237 µg and 1203 µg
8 h, iontophoresis
  drug flux across the skin, Mean ± SD: 260 ± 46 µg/h
  drug flux across the skin, as tapentadol base, Mean ± SD: 224 ± 40 µg/h
  drug flux across the skin: 260 µg/h and 353 µg/h and 241 µg/h and 234 µg/h and 242 µg/h and 232 µg/h
8 h
  cumulative, iontophoretic delivery across the skin, Mean ± SD: 1579 ± 171 µg
  cumulative, iontophoretic delivery across the skin, as tapentadol base, Mean ± SD: 1356 ± 147 µg
  cumulative, iontophoretic delivery across the skin: 1564 µg and 1901 µg and 1616 µg and 1479 µg and 1435 µg
Example 1a, iontophoresis
  time by which steady-state flux appears to have been reached: 5 to 6 h
